Key:
Assay type in all cases: in vivo
[1] = test system: dairy cows afflicted with digital dermatitis; test: Effect of patch on digital dermatitis of dairy cows (Example 1); details: patch on affected area, assessed two days later
Source text: 3 g of a powdered composition of allyl isothiocyanate (trade name: “Wasaouro Powder”, Mitsubishi-Kagaku Foods Corp.) were placed on a piece of absorbent cotton and pressed against the affected area of dairy cows afflicted with digital dermatitis followed by wrapping with an elastic bandage to administer the allyl isothiocyanate to the affected area in the form of a patch and assessing the effect two days later. In addition, the effect of respectively administering sodium alginate and slaked lime using the same method was also assessed two days later.

[2] = test system: dairy cows afflicted with hairy hoof wart attack; test: Effect of patch on hairy hoof wart attack of dairy cows (Example 2); details: assessed one week later
Source text: 3 g of a powdered composition of allyl isothiocyanate (trade name: “Wasaouro Powder”, Mitsubishi-Kagaku Foods Corp.) were placed on a piece of absorbent cotton and pressed against the affected area of dairy cows (5) afflicted with hairy hoof wart attack followed by wrapping with an elastic bandage to administer the allyl isothiocyanate to the affected area in the form of a patch and assessing the effect one week later. […] Hairy hoof wart attack is a hoof and leg disease having lesions that are more serious and cover a broader area in comparison with digital dermatitis, and when considering that an effective preventive and/or treatment method has currently yet to be found, this effect of allyl isothiocyanate can be said to be groundbreaking.

[3] = test system: Acholeplasma vituli; test: 16S rRNA clone analysis of digital dermatitis lesion before and after treatment; details: Table 3 cow
Source text: (§1) Samples were collected from two cows afflicted with digital dermatitis. First, a digital dermatitis lesion was collected from the affected area by biopsy prior to treatment. After collecting the lesion, a powdered composition containing allyl isothiocyanate (trade name: “Wasaouro Powder”, Mitsubishi-Kagaku Foods Corp.) was applied to the affected area. After confirming improvement of clinical symptoms seven days later, a sample was again collected by biopsy. The stage of digital dermatitis at the time of sampling was assessed macroscopically. In order to investigate the predominant microbial species in the lesion before and after treatment, DNA was extracted from four specimens of digital dermatitis lesion materials of the two cows before and after treatment, low cycle number PCR (25 cycles or less) was carried out using universal primers to 16S rRNA gene, and the amplified gene fragment was cloned in an Escherichia coli vector. 192 clones were randomly harvested for each specimen to determine the base sequence of the amplified 16S rRNA gene. Among these, a homology analysis was performed by a BLAST search using clones from which data was obtained for base sequences in excess of 1450 bp, followed by determination of microbial species.

[4] = test system: Anaerovorax odorimutans; test: as above; details: Table 3 cow
Source text: as §1

[5] = test system: Clostridiaceae; test: as above; details: Table 3 cow
Source text: as §1

[6] = test system: Eubacteriaceae; test: as above
Source text: as §1

[7] = test system: Psychrobacter; test: as above; details: Table 3 cow
Source text: as §1

[8] = test system: Treponema; test: as above
Source text: as §1

[9] = test system: Treponema; test: Microbial score of affected area with and without hoof trimming (Example 4); details: observed after 2, 4 and 6 days
Source text: (§2) Allyl isothiocyanate (trade name: “Wasaouro Powder”, Mitsubishi-Kagaku Foods Corp.) was applied to the affected areas of dairy cows afflicted with digital dermatitis, and microbial scores and changes in pain at the lesions were observed after 2, 4 and 6 days.
(§3) Comparisons were made under the following conditions A to D in order to confirm differences in effects attributable to the presence or absence of hoof trimming.
(§4) A: Allyl isothiocyanate applied to affected area after hoof trimming
(§5) B: Allyl isothiocyanate applied to affected area without performing hoof trimming
(§6) C: Allyl isothiocyanate applied after hoof trimming and cleaning the affected area with Oxydol disinfectant
(§7) D: Affected area cleaned with Oxydol disinfectant after hoof trimming (without applying allyl isothiocyanate)
Microbial scores of the affected areas were obtained by scoring the number of microorganisms from a stamped specimen of the heel bulb in the manner indicated below.
3: Treponema covered the entire field of view
2: Large number of Treponema confirmed in the field of view
1: Treponema only occasionally confirmed
0: Treponema unable to be confirmed

[10] = test system: dairy cows afflicted with digital dermatitis; test: Pain at affected area by pressure gauge, with and without hoof trimming (Example 4); details: applied after hoof trimming; observed after 2, 4 and 6 days
Source text: as §2, §3, §4, §5, §6, §7
Changes in pain were evaluated based on the level of pressure at which pain was felt by tightly squeezing the affected area with a pressure gauge. Larger values indicate lower levels of pain.

[11] = 3 g powder patch, five dairy cows
[12] = after treatment (n = 178), seven days
[13] = Table 2 cow, after treatment (n = 171), seven days
[14] = Table 2 cow, before treatment (n = 181)
[15] = Table 3 cow, after treatment (n = 178), seven days
[16] = Table 3 cow, before treatment (n = 180)

C=CCN=C=S [Allyl isothiocyanate, allyl isothiocyanate]
Degree of effect: Effective (number of digits) [1]: 1 digits
Degree of effect: Ineffective (number of digits) [1]: 0 digits
Degree of effect: Slightly effective (number of digits) [1]: 0 digits
Degree of effect: Very effective (number of digits) [1]: 2 digits
percentage of digits for which the degree of the effect was effective or better [1]: 100%
cows in which the affected area demonstrated improvement [2, 11]: one
cows in which the affected area healed [2, 11]: two
cows in which the affected area was unchanged [2, 11]: one
cows with effects categorized as improved or better ([2]; of the five dairy cows): four
percentage of clones detected: Acholeplasma vituli [3, 12]: 0%
percentage of clones detected: Acholeplasma vituli ([3]; before treatment (n = 180)): 3.9%
percentage of clones detected: Anaerovorax odorimutans [4, 12]: 0%
percentage of clones detected: Anaerovorax odorimutans ([4]; before treatment (n = 180)): 10.0%
percentage of clones detected: Clostridiaceae [5, 12]: 5.6%
percentage of clones detected: Clostridiaceae ([5]; before treatment (n = 180)): 26.7%
percentage of clones detected: Eubacteriaceae [6, 13]: 0.6%
percentage of clones detected: Eubacteriaceae [6, 14]: 5.5%
percentage of clones detected: Eubacteriaceae [6, 15]: 0.6%
percentage of clones detected: Eubacteriaceae [6, 16]: 10.6%
percentage of clones detected: Psychrobacter [7, 12]: 0%
percentage of clones detected: Psychrobacter ([7]; before treatment (n = 180)): 2.2%
percentage of clones detected: Treponema [8, 13]: 7.0%
percentage of clones detected: Treponema [8, 14]: 79.6%
percentage of clones detected: Treponema [8, 15]: 0%
percentage of clones detected: Treponema [8, 16]: 37.8%
number of microorganisms at the lesion ([9]; administered after hoof trimming): decrease
number of microorganisms at the lesion ([9]; applied after cleaning the affected area with Oxydol disinfectant): decrease further
pain [10]: decrease

[Ca+2].[OH-].[OH-] [Slaked lime, slaked lime, reference compound]
Degree of effect: Effective (number of digits) [1]: 2 digits
Degree of effect: Ineffective (number of digits) [1]: 0 digits
Degree of effect: Slightly effective (number of digits) [1]: 5 digits
Degree of effect: Very effective (number of digits) [1]: 0 digits
percentage of digits for which the degree of the effect was effective or better [1]: 29%
